Test results as given in patent US8841313B2, “CCR2 antagonists and uses thereof” (Boehringer Ingelheim International GmbH, priority 2010, dated 2014).
pKi: −log10 of the molar value.

Target: T1, CCR2 (Homo sapiens, UniProt P41597)
T1 construct: Membranes were prepared from THP-1 cells; endogenous in cells; host or cells: THP-1 (human acute monocytic leukaemia cells), membrane preparation
Assay: CCR2 receptor membrane binding assay ([125I]MCP-1, THP-1 membranes, SPA beads)
Conditions: THP-1 cell membranes, [125I]MCP-1 displacement, bound radioactivity after 8 h; read-out: hKi
Protocol: The above exemplary substances have been tested for binding to CCR2 using a binding assay as outlined herein below:
THP-1 cells (human acute monocytic leukaemia cells) were cultured under standardized conditions at 37° C. and 5% CO2 in a humidified incubator. THP-1 cells were cultivated in RPMI 1640 medium (Gibco 21875) containing 1% MEM-NEAA (Gibso 11140) 2 mM L-glutamine, 1.5 g/L sodium bicarbonate, 4.5 g/L glucose, 10 mM HEPES and 1.0 mM sodium pyruvate, 90%; 10% fetal calf serum (FCS Gibco 10500-064).
Membranes were prepared from THP-1 cells. THP-1 cells were centrifuged at 300×g at 4° C. for 10 min. The cell pellet was resuspended in Phosphate Buffer Saline (PBS, including 10 μM Pefabloc and a protease inhibitor mix ‘complete’, Boehringer Mannheim (1 tablet/50 ml)), to a concentration of […]. The membrane preparation was performed by disrupting the cells by nitrogen […] (at 50 bar, for 1 h) in a “Nitrogen Bombe” (Parr Instrument). Cell debris was removed by centrifugation (800×g at 4° C., 1 min). The supernatant was centrifuged at 80000×g, 4° C. for 30 min to sediment the cell membranes. Usually 50 mg of protein (Bradford assay) were yielded from 1×10E9 cells. The membranes were resuspended in 25 mM HEPES, 25 mM MgCl2, 1 mM CaCl2, 10% Glycerine for storage in aliquots at −80° C. in 25 mM HEPES, 25 mM MgCl2, 1 mM CaCl2, 10% Glycerine and stored at −80° C.
Perkin Elmer NEX 332 Jod 125 MCP-1, Stock: 2200 Ci/mmol solved in 2000 μl assay buffer, stored at −20° C. THP-1 membrane were adjusted with 25 mM HEPES, pH 7.2; 5 mM MgCl2; 0.5 mM CaCl2; 0.2% BSA assay buffer to a concentration of 2.5 μg/15 μl. Amersham Biosciences PVT-WGA Beads (RPNQ0001) were adjusted with assay buffer to a concentration of 0.24 mg/30 μl. For preparation of the membrane-bead-suspension membranes and beads were incubated for 30 min at RT under rotation (60 rpm) with a ratio of 1:2. Test compounds dissolved in 100% DMSO to a concentration of 10 mM and are further diluted with 100% DMSO to 1 mM. All additional compound dilutions were obtained with assay buffer, final 1% DMSO. Compounds, membrane-bead-suspension and [125I]MCP-1 (ca. 25000 cpm/10 μl) were incubated. Bound radioactivity was determined by scintillation counter after 8 h. Determination of affinity of test compounds (dissociation constant hKi) is calculated by iterative fitting of experimental data using the “easy sys” program, which is based on law of mass action (Schittkowski K. (1994), Numerische Mathematik, Vol. 68, 129-142).

T1 sequence (P41597 whole entry): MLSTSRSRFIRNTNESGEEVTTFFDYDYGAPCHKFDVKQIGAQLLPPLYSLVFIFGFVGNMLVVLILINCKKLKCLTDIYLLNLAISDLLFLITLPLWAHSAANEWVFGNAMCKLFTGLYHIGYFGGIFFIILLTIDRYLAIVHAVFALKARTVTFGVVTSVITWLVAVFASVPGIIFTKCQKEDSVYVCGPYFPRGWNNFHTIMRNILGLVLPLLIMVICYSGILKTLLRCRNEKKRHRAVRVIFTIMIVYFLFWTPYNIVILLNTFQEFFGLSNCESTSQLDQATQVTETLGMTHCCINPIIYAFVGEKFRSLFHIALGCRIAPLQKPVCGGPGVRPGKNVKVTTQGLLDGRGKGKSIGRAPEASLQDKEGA

Row | Structure (SMILES) | pKi
1 | COC1COCCC1NC1CCN(C(=O)c2ncnc(OCc3ccc(C(F)(F)F)c(Cl)c3)c2C)CC1 (stereo not shown) [Example 2b] | 8.10
2 | CO[C@H]1COCC[C@H]1NC1CCN(C(=O)c2ncnc(OC[C@H]3CCC[C@@H](c4ccc(OC(F)(F)F)cc4)O3)c2C)CC1 [Example 3] | 7.35
3 | COC1COCCC1NC1CCN(C(=O)c2ncnc(OCc3ccc(C(C)(C)C)cc3)c2C)CC1 (stereo not shown) [Example 2] | 7.68
4 | COC1COCCC1NC1CCN(C(=O)c2ncnc(OCc3cc(Cl)cc(Cl)c3)c2C)CC1 (stereo not shown) [Example 2c] | 7.74
5 | CO[C@@H]1COCC[C@@H]1NC1CCN(C(=O)c2ncnc(OCc3ccc(Cl)c(Cl)c3)c2C)CC1 [Example 2d] | 7.92
6 | COC1COCCC1NC1CCN(C(=O)c2ncnc(OCc3ccc(Cl)c(Cl)c3)c2C)CC1 (stereo not shown) [Example 2a] | 8.10
7 | COC1COCCC1NC1CCN(C(=O)c2ncnc(Oc3cccc(C(F)(F)F)c3)c2C)CC1 (stereo not shown) [Example 1] | 6.56

The remaining lines, values ahead:

Row | pKi | Structure (SMILES)
8 | 8.05 | CO[C@H]1COCC[C@H]1NC1CCN(C(=O)c2nc(C(F)(F)F)nc(OCc3ccc(C(C)(C)C)cc3)c2C)CC1 [Example 3e]
9 | 8.00 | COc1nc(OCc2ccc(Cl)c(Cl)c2)c(C)c(C(=O)N2CCC(N[C@H]3CCOC[C@H]3OC)CC2)n1 [Example 3m]
10 | 7.74 | COc1nc(OCc2cccc(C(F)(F)F)c2)c(C)c(C(=O)N2CCC(N[C@H]3CCOC[C@H]3OC)CC2)n1 [Example 3h]
11 | 7.74 | CO[C@@H]1COCC[C@@H]1NC1CCN(C(=O)c2nc(C(F)(F)F)nc(OCc3cc(Cl)cc(Cl)c3)c2C)CC1 [Example 3o]
12 | 8.10 | COc1nc(OCc2ccc(Cl)c(F)c2)c(C)c(C(=O)N2CCC(N[C@H]3CCOC[C@H]3OC)CC2)n1 [Example 3l]
13 | 7.64 | CO[C@@H]1COCC[C@@H]1NC1CCN(C(=O)c2nccc(OCc3ccc(C(C)(C)C)cc3)c2C)CC1 [Example 3a]
14 | 8.52 | COc1nc(OCc2ccc(C(F)(F)F)c(Cl)c2)c(C)c(C(=O)N2CCC(N[C@H]3CCOC[C@H]3OC)CC2)n1 [Example 3j]
15 | 8.40 | COc1nc(OCc2ccc(C(F)(F)F)cc2)c(C)c(C(=O)N2CCC(N[C@H]3CCOC[C@H]3OC)CC2)n1 [Example 3d]
16 | 8.10 | COc1nc(OCc2ccc(C(F)(F)F)c(Cl)c2)c(C)c(C(=O)N2CCC(N[C@@H]3CCOC[C@@H]3OC)CC2)n1 [Example 3k]
17 | 7.85 | COc1nc(OCc2ccc(C(F)(F)F)cc2)c(C)c(C(=O)N2CCC(N[C@@H]3CCOC[C@@H]3OC)CC2)n1 [Example 3c]
18 | 8.70 | COc1nc(OCc2ccc(C(C)(C)C)cc2)c(C)c(C(=O)N2CCC(N[C@H]3CCOC[C@H]3OC)CC2)n1 [Example 3g]
19 | 7.80 | CO[C@@H]1COCC[C@@H]1NC1CCN(C(=O)c2nc(C(F)(F)F)nc(OCc3ccc(Cl)c(Cl)c3)c2C)CC1 [Example 3n]
20 | 8.15 | CO[C@@H]1COCC[C@@H]1NC1CCN(C(=O)c2nc(C(F)(F)F)nc(OCc3ccc(C(C)(C)C)cc3)c2C)CC1 [Example 3f]
21 | 8.40 | COc1nc(OCc2ccc(C(C)(C)C)cc2)c(C)c(C(=O)N2CCC(N[C@@H]3CCOC[C@@H]3OC)CC2)n1 [Example 3i]
22 | 6.97 | CO[C@H]1COCC[C@H]1NC1CCN(C(=O)c2nccc(OCc3ccc(C(C)(C)C)cc3)c2C)CC1 [Example 3b]
